Like-named read-outs stand apart in the source and are kept apart here.
What was measured:
[1] = test system: patient-derived PDA #13756 tumors; assay: PDA #13756 study: CBL0137/gemcitabine against patient-derived pancreatic tumor engrafts; assay type: in vivo, SCID mice
Excerpt: (§1) Seventy and sixty female athymic nude mice were obtained for each H1975 Non-Small Cell Lung Cancer Xenograft study and split into treatment groups consisting of 10 animals per group (2 cages of 5 mice per cage).
(§2) Preparation and subcutaneous implantation of tumor pieces: HepG2 tumors (passage 2 for HepG2 study and passage 1 for HepG2 (sub-dose CLB0137) study) or Hep3B tumors (passage 1 for Hep3B study and passage 9 for Hep3B (sub-dose CLB0137) study) were propagated in athymic nude mice and harvested from euthanized mice when they reached ˜500-900 mm^3. PDA tumors (passage 6) were propagated in SCID mice (both flanks) and harvested from euthanized mice when they reached ˜600-700 mm^3 in size. Harvested tumors were transferred to a sterile Petri dish containing RPMI-10% FBS medium or D-PBS plus penicillin/streptomycin. Enough media was added to bathe the tumor in order to ensure the viability of the transplant material. Tumors were dissected into 2 mm×2 mm cubes using a sterile scalpel. Care was taken to make the pieces as uniform in size and shape as possible. Tumor pieces were implanted into recipient mice immediately after being prepared.
(§3) Tumor Size Measurements: Tumor size was measured by digital caliper in two dimensions (in mm): maximum length (l) and maximum width (w) taken perpendicular to one another. The measurements were used to calculate tumor volume according to the formula: tumor volume=(l×w2)/2 (w<l). The value obtained by this formula is also equal to the mass of the tumor in mg. Starting 2 days after tumor implantation, tumor measurements were made every 2-3 days prior to treatment initiation and then twice per week (e.g., on Day 1 (D1, the day of treatment initiation), D4, D8, D11, D15, D18, D22, D25, D29, D32, D36, D39, D43, D46, D50, D53 and D57). Tumor measurements were collected more frequently when tumor size approached the tumor size endpoint in order to prevent passing the endpoint between scheduled measurements.
(§4) Administration of test and control articles: Mice were administered the designated solutions when the mean tumor volume per treatment group was ˜45-200 mm^3.
The volume of dosing solution administered ip or iv was 8 ml/kg mouse body weight. Intravenous injections were performed via the tail vein. […]
Monitoring and Sample Collection: Twice daily, mice were monitored for mortality and morbidity for the duration of the experiment. […] All abnormal observations were documented and semi-quantitative scores were assigned for “body condition,” “posture,” and “activity.” Scores of 4, 3, 2, and 1 were assigned to normal conditions (4), and slightly (3), moderately (2) and severely (1) abnormal conditions, respectively. […]
Data analysis: For all study groups, maximum tumor growth inhibition was calculated for Day 11, 13, or 15 (Day X). […] For each tumor, relative tumor size was calculated relative to its size on Day 1 when treatment was initiated (i.e., fold tumor growth). […] Differences in tumor sizes between groups were determined using ANOVA analysis (GraphPad Prism 5 Software) where “*” refers to P=0.01-0.05 (significant), “**” refers to P=0.001-0.01 (very significant) and “***” refers to P<0.001 (extremely significant), Differences that were not statistically significant are indicated with “ns”. […] Tumor growth delay (T−C) was calculated by subtracting the median time for the control to reach the 1000 mm^3 size endpoint from that of the median time for the treated groups to reach the size endpoint.

[2] = test system: patient-derived PDA #13590 tumors; assay: PDA #13590 study: CBL0137/gemcitabine against patient-derived pancreatic tumor engrafts; assay type: in vivo, SCID mice
Excerpt: as §1, §2, §3, §4
The volume of dosing solution administered ip or iv was 8 ml/kg mouse body weight. Intravenous injections were performed via the tail vein. Administration of drugs was done slowly without force on the syringe.
Monitoring and Sample Collection: Twice daily, mice were monitored for mortality and morbidity for the duration of the experiment. […] All abnormal observations were documented and semi-quantitative scores were assigned for “body condition,” “posture,” and “activity.” Scores of 4, 3, 2, and 1 were assigned to normal conditions (4), and slightly (3), moderately (2) and severely (1) abnormal conditions, respectively. Cages were taken to a laminar flow hood and opened in order to clearly assess mouse activity.
Data analysis: For all study groups, maximum tumor growth inhibition was calculated for Day 11, 13, or 15 (Day X). […] For each tumor, relative tumor size was calculated relative to its size on Day 1 when treatment was initiated (i.e., fold tumor growth). To calculate the maximum tumor growth inhibition for each tumor, the following equation was used: 100−(fold tumor growth drug-treated Day X/mean fold tumor growth vehicle-treated Day X)*100. Differences in tumor sizes between groups were determined using ANOVA analysis (GraphPad Prism 5 Software) where “*” refers to P=0.01-0.05 (significant), “**” refers to P=0.001-0.01 (very significant) and “***” refers to P<0.001 (extremely significant), Differences that were not statistically significant are indicated with “ns”. […] Tumor growth delay (T−C) was calculated by subtracting the median time for the control to reach the 1000 mm^3 size endpoint from that of the median time for the treated groups to reach the size endpoint.

H1975 NSCLC tumors = test system: H1975 NSCLC tumors
Experimental: as §1
Description of H1975 NSCLS test material: Human H1975 NSCLC cell line (originally from ATCC) suspension was mixed 1:1 with Matrigel at 5×10^7 cells/ml (5×10^6 cells delivered per 100 μl injection) and kept on ice until inoculation.
For the NSCLC studies, solutions were prepared in two lots (once per 2 weeks) to ensure that fresh solutions were used throughout the study.
Preparation and inoculation of tumor cells: The night before inoculation, the Matrigel was placed on ice in the refrigerator to thaw. Prior to the start of cell harvesting, a supply of pipettes, tubes and tips were placed into the freezer so that they were cold when it was time to work with the Matrigel. One ml syringes and ½″ 23 G needles were also pre-chilled. This step was necessary to prevent premature solidification of Matrigel, which becomes solid at room temperature or higher (i.e., 37° C.).
H1975 cell suspension was prepared immediately before tumor inoculation in PBS. H1975 cells at passage 16 were harvested from forty 150 mm diameter dishes and diluted to 10×10^7 cells/ml in PBS (5.87 ml). Just prior to inoculation, using pre-chilled tips and tubes, 4.5 ml of this cell suspension was mixed with an equal volume of Matrigel (1:1) to a total volume of 9 mL Cell suspensions were kept on ice. The final concentration of cells was […].
Prior to inoculation of mice, the tumor cell-Matrigel mixture was carefully mixed by inverting the tube several times. A pre-chilled 1 nil syringe was filled with tumor cell-Matrigel mixture and then a pre-chilled ½″ 23 G capped needle was attached to the end of syringe to perform the injection. The closed filled syringe was inverted several times and then 100 μl of the cell-Matrigel mixture was inoculated subcutaneously into the left flank of each mouse.
For inoculation, mice were anesthetized with isoflurane (3-4% induction in 100% O2, 1-2% maintenance) to aid in proper subcutaneous inoculation.
as §3, §4
For all groups, Q4 d dosing was performed on D1, 05, 09, 013, 017, 021, 025, and 029 of the study. For groups that received only one drug rather than both, the vehicle for the drug that was not given was administered in its place as a mock administration. The volume of dosing solution administered ip or iv was 8 ml/kg mouse body weight. Intravenous injections were performed via the tail vein. Administration of drugs was done slowly without force on the syringe.
Monitoring and Sample Collection: Twice daily, mice were monitored for mortality and morbidity for the duration of the experiment. […] All abnormal observations were documented and semi-quantitative scores were assigned for “body condition,” “posture,” and “activity.” Scores of 4, 3, 2, and 1 were assigned to normal conditions (4), and slightly (3), moderately (2) and severely (1) abnormal conditions, respectively.

A549 = A549 engraft experiment; assay type: in vivo; conditions: one engraft experiment

In the case of `Nc1ccn([C@@H]2O[C@H](CO)[C@@H](O)C2(F)F)c(=O)n1` [gemcitabine], the “mean fold tumor growth” value ([1]; Day 15, gemcitabine 40 mg/kg ip Q4d, CBL0137 80 mg/kg iv 1×/wk, 4 weeks) is reported as 0.55 fold, the “tumor growth (in words)” value ([1]; Day 29) is reported as “regression of all tumors” and the “mean fold tumor growth” value ([1]; Day 54) is reported as 26.7 fold. The “individual tumors regressed or disappeared” value ([1]; by Day 15) was 8/10, the animal survival time ([1]; gemcitabine 40 mg/kg ip Q4d, CBL0137 80 mg/kg iv 1×/wk) was 54 days and the “individual tumors showing regression or disappeared” value ([2]; Day 29, vehicle 1/9) was 6/6. For the same compound, the “mean fold tumor growth” value ([2]; Day 57) was 7.91±2.7 fold, the “mean fold tumor growth” value ([2]; Day 71) was 12.98±3.9 fold and the “animals surviving to the end of the study” value ([2]; Day 88, vehicle 0/5) was “¼”. The “antitumor efficacy (in words)” value ([2]; PDA #13590) was “effective against PDA #13590 tumor growth as single agents”, the “median survival time (MST)” value ([2]; vehicle 46 days, study end Day 88) was 76.5 days and the “median time to reach endpoint” value (H1975 NSCLC tumors; 2000 mm^3 size endpoint, vehicle 15.6 days) was 47.8 days. The “individual tumors smaller than at start of treatment on Day 1” value (H1975 NSCLC tumors; Day 5, vehicle 1/9) was 9/10, the tumor growth inhibition (H1975 NSCLC tumors; Day 15) was 88.8% and the “mean fold tumor growth” value (H1975 NSCLC tumors; Day 15, vehicle 8.52-fold) was 0.958 fold. The tumor growth inhibition (H1975 NSCLC tumors; Day 22) was 82.6%, the “mean fold tumor growth” value (H1975 NSCLC tumors; Day 22, CBL0137 70 mg/kg iv Q4d, gemcitabine 40 mg/kg ip Q4d, vehicle 15.2) was 2.7 fold and the “mean fold tumor growth” value (H1975 NSCLC tumors; Day 39) was 3.66 fold. For the same compound, the “delay in tumor growth (relative to vehicle treatment)” value (H1975 NSCLC tumors; mouse, in vivo) was 32.2 days, the signs of morbidity (H1975 NSCLC tumors; mouse, in vivo) was “no signs of morbidity” and the “toxicity, cage-side observations” value (H1975 NSCLC tumors; mouse, in vivo) was “None of the cage-side observations were indicative of any toxicity”. The “median survival time (MST)” value (H1975 NSCLC tumors; vehicle 16 days) was 48.5 days, the “median survival time (MST)” value (H1975 NSCLC tumors; vehicle 22 days) was 51.5 days and the “response of A549 in engraft experiment (in words)” value (A549) was “resistant to gemcitabine”.
